# Measurements taken from patent US20150094474A1, “AGRICULTURAL CHEMICALS” (Redx Pharma Ltd., priority 2012, published 2015).
# Legend:
# [1] = system: barley; assay: Herbicidal bioassay, barley (% necrosis); format: in vivo
# Summary of the method: (§1)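 Scoring of % necrosis followed EPPO guideline PP1/135 at specified growth intervals, five replicates per species and treatment. Plants at the 2-4 true leaf stage received Potter-tower sprays of DMSO-diluted compounds across six levels from 0.0001% to 0.05%, with water and DMSO controls.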
# [2] = system: peas; assay: Herbicidal bioassay, peas (% necrosis); format: in vivo
# Summary of the method: as §1
smiles,measurement,setting,value
"COc1cc(OC)nc(NC(=O)NS(=O)(=O)c2cc(CNS(C)(=O)=O)ccc2CO)n1 [Compound 8, 1-(4,6-Dimethoxypyrimidin-2-yl)-3-[2-(hydroxymethyl)-5-(methanesulfonamidomethyl)phenyl]sulfonyl-urea]",Sum of % necrosis in barley,"[1]; Dose 0.000001, Day 0",C (less than 50% necrosis)
same,Sum of % necrosis in barley,"[1]; Dose 0.000001, Day 1",C (less than 50% necrosis)
same,Sum of % necrosis in barley,"[1]; Dose 0.000001, Day 3",C (less than 50% necrosis)
same,Sum of % necrosis in barley,"[1]; Dose 0.000001, Day 7",C (less than 50% necrosis)
same,Sum of % necrosis in barley,"[1]; Dose 0.000001, Day 10",C (less than 50% necrosis)
same,Sum of % necrosis in barley,"[1]; Dose 0.000001, Day 14",C (less than 50% necrosis)
same,Sum of % necrosis in barley,"[1]; Dose 0.000005, Day 0",C (less than 50% necrosis)
same,Sum of % necrosis in barley,"[1]; Dose 0.000005, Day 1",C (less than 50% necrosis)
same,Sum of % necrosis in barley,"[1]; Dose 0.000005, Day 3",C (less than 50% necrosis)
same,Sum of % necrosis in barley,"[1]; Dose 0.000005, Day 7",C (less than 50% necrosis)
same,Sum of % necrosis in barley,"[1]; Dose 0.000005, Day 10",C (less than 50% necrosis)
same,Sum of % necrosis in barley,"[1]; Dose 0.000005, Day 14",C (less than 50% necrosis)
same,Sum of % necrosis in barley,"[1]; Dose 0.00001, Day 0",C (less than 50% necrosis)
same,Sum of % necrosis in barley,"[1]; Dose 0.00001, Day 1",C (less than 50% necrosis)
same,Sum of % necrosis in barley,"[1]; Dose 0.00001, Day 3",C (less than 50% necrosis)
same,Sum of % necrosis in barley,"[1]; Dose 0.00001, Day 7",C (less than 50% necrosis)
same,Sum of % necrosis in barley,"[1]; Dose 0.00001, Day 10",C (less than 50% necrosis)
same,Sum of % necrosis in barley,"[1]; Dose 0.00001, Day 14",C (less than 50% necrosis)
same,Sum of % necrosis in barley,"[1]; Dose 0.00005, Day 0",C (less than 50% necrosis)
same,Sum of % necrosis in barley,"[1]; Dose 0.00005, Day 1",C (less than 50% necrosis)
same,Sum of % necrosis in barley,"[1]; Dose 0.00005, Day 3",C (less than 50% necrosis)
same,Sum of % necrosis in barley,"[1]; Dose 0.00005, Day 7",C (less than 50% necrosis)
same,Sum of % necrosis in barley,"[1]; Dose 0.00005, Day 10",C (less than 50% necrosis)
same,Sum of % necrosis in barley,"[1]; Dose 0.00005, Day 14",C (less than 50% necrosis)
same,Sum of % necrosis in barley,"[1]; Dose 0.0001, Day 0",C (less than 50% necrosis)
same,Sum of % necrosis in barley,"[1]; Dose 0.0001, Day 1",C (less than 50% necrosis)
same,Sum of % necrosis in barley,"[1]; Dose 0.0001, Day 3",C (less than 50% necrosis)
same,Sum of % necrosis in barley,"[1]; Dose 0.0001, Day 7",C (less than 50% necrosis)
same,Sum of % necrosis in barley,"[1]; Dose 0.0001, Day 10",C (less than 50% necrosis)
same,Sum of % necrosis in barley,"[1]; Dose 0.0001, Day 14",C (less than 50% necrosis)
same,Sum of % necrosis in barley,"[1]; Dose 0.0005, Day 0",C (less than 50% necrosis)
same,Sum of % necrosis in barley,"[1]; Dose 0.0005, Day 1",C (less than 50% necrosis)
same,Sum of % necrosis in barley,"[1]; Dose 0.0005, Day 3",C (less than 50% necrosis)
same,Sum of % necrosis in barley,"[1]; Dose 0.0005, Day 7",C (less than 50% necrosis)
same,Sum of % necrosis in barley,"[1]; Dose 0.0005, Day 10",C (less than 50% necrosis)
same,Sum of % necrosis in barley,"[1]; Dose 0.0005, Day 14",C (less than 50% necrosis)
same,Sum of % necrosis in Pea,"[2]; Dose 0.000001, Day 0",C (less than 50% necrosis)
same,Sum of % necrosis in Pea,"[2]; Dose 0.000001, Day 1",C (less than 50% necrosis)
same,Sum of % necrosis in Pea,"[2]; Dose 0.000001, Day 3",B (50%-80% necrosis)
same,Sum of % necrosis in Pea,"[2]; Dose 0.000001, Day 7",A (over 80% necrosis)
same,Sum of % necrosis in Pea,"[2]; Dose 0.000001, Day 10",A (over 80% necrosis)
same,Sum of % necrosis in Pea,"[2]; Dose 0.000001, Day 14",A (over 80% necrosis)
same,Sum of % necrosis in Pea,"[2]; Dose 0.000005, Day 0",C (less than 50% necrosis)
same,Sum of % necrosis in Pea,"[2]; Dose 0.000005, Day 1",C (less than 50% necrosis)
same,Sum of % necrosis in Pea,"[2]; Dose 0.000005, Day 3",B (50%-80% necrosis)
same,Sum of % necrosis in Pea,"[2]; Dose 0.000005, Day 7",B (50%-80% necrosis)
same,Sum of % necrosis in Pea,"[2]; Dose 0.000005, Day 10",A (over 80% necrosis)
same,Sum of % necrosis in Pea,"[2]; Dose 0.000005, Day 14",A (over 80% necrosis)
same,Sum of % necrosis in Pea,"[2]; Dose 0.00001, Day 0",C (less than 50% necrosis)
same,Sum of % necrosis in Pea,"[2]; Dose 0.00001, Day 1",C (less than 50% necrosis)
same,Sum of % necrosis in Pea,"[2]; Dose 0.00001, Day 3",B (50%-80% necrosis)
same,Sum of % necrosis in Pea,"[2]; Dose 0.00001, Day 7",A (over 80% necrosis)
same,Sum of % necrosis in Pea,"[2]; Dose 0.00001, Day 10",A (over 80% necrosis)
same,Sum of % necrosis in Pea,"[2]; Dose 0.00001, Day 14",A (over 80% necrosis)
same,Sum of % necrosis in Pea,"[2]; Dose 0.00005, Day 0",C (less than 50% necrosis)
same,Sum of % necrosis in Pea,"[2]; Dose 0.00005, Day 1",C (less than 50% necrosis)
same,Sum of % necrosis in Pea,"[2]; Dose 0.00005, Day 3",B (50%-80% necrosis)
same,Sum of % necrosis in Pea,"[2]; Dose 0.00005, Day 7",A (over 80% necrosis)
same,Sum of % necrosis in Pea,"[2]; Dose 0.00005, Day 10",A (over 80% necrosis)
same,Sum of % necrosis in Pea,"[2]; Dose 0.00005, Day 14",A (over 80% necrosis)
same,Sum of % necrosis in Pea,"[2]; Dose 0.0001, Day 0",C (less than 50% necrosis)
same,Sum of % necrosis in Pea,"[2]; Dose 0.0001, Day 1",C (less than 50% necrosis)
same,Sum of % necrosis in Pea,"[2]; Dose 0.0001, Day 3",B (50%-80% necrosis)
same,Sum of % necrosis in Pea,"[2]; Dose 0.0001, Day 7",A (over 80% necrosis)
same,Sum of % necrosis in Pea,"[2]; Dose 0.0001, Day 10",A (over 80% necrosis)
same,Sum of % necrosis in Pea,"[2]; Dose 0.0001, Day 14",A (over 80% necrosis)
same,Sum of % necrosis in Pea,"[2]; Dose 0.0005, Day 0",C (less than 50% necrosis)
same,Sum of % necrosis in Pea,"[2]; Dose 0.0005, Day 1",C (less than 50% necrosis)
same,Sum of % necrosis in Pea,"[2]; Dose 0.0005, Day 3",B (50%-80% necrosis)
same,Sum of % necrosis in Pea,"[2]; Dose 0.0005, Day 7",A (over 80% necrosis)
same,Sum of % necrosis in Pea,"[2]; Dose 0.0005, Day 10",A (over 80% necrosis)
same,Sum of % necrosis in Pea,"[2]; Dose 0.0005, Day 14",A (over 80% necrosis)
